Measured values published in patent publication US11242340B2, “Crystal forms of demethyleneberberine hydrochloride and preparation method therefor” (priority 2018, dated 2022).
Entries after “also recorded” stand apart in the source; their conditions may differ. Where a name gives a salt, the structure may show the parent alone. Read-outs that look alike come from different tables or passages of the source.

Key:
[1] = Stability in high-temperature experiment (60±2° C.); type: physicochemical; details: for X-Ray Powder Diffraction / Content (%) / Content of Relevant Substance (%) / Stability in the high-temperature environment: 60±2° C.; for Stability in the high-temperature environment / Stability under stability test conditions (summary): hydrochloride; for Stability under stability test conditions (summary): summary over high temperature, high humidity and strong light irradiation
Description: Demethyleneberberine hydrochloride crystals A, B, C and D are taken in an appropriate amount and placed in plates numbered as A1, B1, C1 and D1 respectively, and then the plates are placed in a high-temperature environment at 60±2° C. respectively for stability test.

[2] = Determination of blood concentration in rats after ig administration; type: in vivo; details: ig 200 mg/kg, plasma; for AUC: calculated from the experimental results
Description: Male SD rats are adaptively bred for 3 days, and rats having (220±20) g body weight are selected and divided into 5 groups, namely, blank group, demethyleneberberine hydrochloride crystal form A group, demethyleneberberine hydrochloride crystal form B group, demethyleneberberine hydrochloride crystal form C group and demethyleneberberine hydrochloride crystal form D group. Food supply is stopped for 12 h for gastric emptying before the experiment. For the rats in the experimental groups, ig (intragastric) administration dosage is 200 mg/kg. 0.2 ml of blood is taken from the orbits of the rats at 5 min., 15 min., 30 min., 1 h, 2 h, 6 h and 12 h respectively after ig administration, the whole blood is centrifuged, and 100 μl of plasma is taken and frozen at −20° C. for use later. 100 μl of plasma sample is taken, 200 μl of methanol is added into the plasma sample, the mixture is vortexed for 5 min., and then centrifuged at 10,000 r/min. for 15 min. in a centrifuge; the supernatant is taken and tested by HPLC. […] Through calculation on the basis of the experimental results, it is determined: DAUC=3.675 μg×ml^−1×h>AAUC=1.247 μg×ml^−1×h>BAUC=1.150 μg×ml^−1×h>CAUC=1.077 μg×ml^−1×h.

[3] = Stability in strong light irradiation experiment (4,500 lx±500 lx); type: physicochemical; details: for Stability in the strong light irradiation environment: hydrochloride
From the text: Demethyleneberberine hydrochloride crystals A, B, C and D are taken in an appropriate amount and placed in plates numbered as A3, B3, C3 and D3 respectively, and then the plates are placed in a strong light irradiation environment at 4,500 lx±500 lx respectively for stability test.

[4] = Stability in high-humidity experiment (RH90±5%); type: physicochemical
From the text: Demethyleneberberine hydrochloride crystals A, B, C and D are taken in an appropriate amount and placed in plates numbered as A2, B2, C2 and D2 respectively, and then the plates are placed in a high-humidity environment at RH90±5% respectively for stability test.

[5] = Solubility in water system at different temperatures, HPLC; type: physicochemical; details: hydrochloride; for Solubility comparison of the four crystal forms (summary): summary over water, methanol and ethanol systems; for Solubility ranking among the four crystal forms: water system, different temperatures, FIG. 13
Description: Demethyleneberberine hydrochloride crystals A, B, C and D are taken in an appropriate amount and the solubility of demethyleneberberine hydrochloride crystals A, B, C and D at different temperatures in a water system is studied respectively. 20 μl of sample is taken at each temperature node and detected by HPLC.

[6] = Solubility in ethanol system at different temperatures, HPLC; type: physicochemical; details: FIG. 15, hydrochloride
Description: Demethyleneberberine hydrochloride crystals A, B, C and D are taken in an appropriate amount and the solubility of demethyleneberberine hydrochloride crystals A, B, C and D at different temperatures in an ethanol system is studied respectively. 20 μl of sample is taken at each temperature node and detected by HPLC.

[7] = Solubility in methanol system at different temperatures, HPLC; type: physicochemical; details: FIG. 14, hydrochloride
Description: Demethyleneberberine hydrochloride crystals A, B, C and D are taken in an appropriate amount and the solubility of demethyleneberberine hydrochloride crystals A, B, C and D at different temperatures in a methanol system is studied respectively. 20 μl of sample is taken at each temperature node and detected by HPLC.

[8] = day 0, listed as B1, hydrochloride
[9] = day 5, listed as B1, hydrochloride
[10] = day 10, listed as B1, hydrochloride
[11] = day 0, listed as B3, hydrochloride
[12] = day 5, listed as B3, hydrochloride
[13] = day 10, listed as B3, hydrochloride
[14] = day 0, listed as B2, hydrochloride
[15] = day 5, listed as B2, hydrochloride
[16] = day 10, listed as B2, hydrochloride
[17] = day 0, listed as C1, hydrochloride
[18] = day 5, listed as C1, hydrochloride
[19] = day 10, listed as C1, hydrochloride
[20] = day 0, listed as C3, hydrochloride
[21] = day 5, listed as C3, hydrochloride
[22] = day 10, listed as C3, hydrochloride
[23] = day 0, listed as C2, hydrochloride
[24] = day 5, listed as C2, hydrochloride
[25] = day 10, listed as C2, hydrochloride

SMILES: COc1ccc2cc3[n+](cc2c1OC)CCc1cc(O)c(O)cc1-3 [crystal form B, demethyleneberberine hydrochloride]
- X-Ray Powder Diffraction ([1]; day 0): Unchanged
- Content (%) [1, 8]: 99.82%
- Content of Relevant Substance (%) [1, 8]: 0.18%
- X-Ray Powder Diffraction ([1]; day 5): Unchanged
- Content (%) [1, 9]: 99.62%
- Content of Relevant Substance (%) [1, 9]: 0.38%
- Content (%) [1, 10]: 99.67%
- Content of Relevant Substance (%) [1, 10]: 0.33%
- X-Ray Powder Diffraction [1, 10]: Unchanged
- Stability in the high-temperature environment [1]: relatively stable
- Stability under stability test conditions (summary) [1]: stable
- AUC ([2]; male SD rats, hydrochloride): 1150 ng·h/mL
- Cmax ([2]; male SD rats, hydrochloride): 642 ng/mL
- tmax ([2]; male, SD, rat, po, 200 mg/kg, read-out: tmax): 1 h
- X-Ray Powder Diffraction ([3]; day 0): Unchanged
- Content (%) [3, 11]: 99.58%
- Content of Relevant Substance (%) [3, 11]: 0.42%
- X-Ray Powder Diffraction ([3]; day 5): Unchanged
- Content (%) [3, 12]: 99.77%
- Content of Relevant Substance (%) [3, 12]: 0.23%
- Content (%) [3, 13]: 99.67%
- Content of Relevant Substance (%) [3, 13]: 0.33%
- X-Ray Powder Diffraction [3, 13]: Unchanged
- Stability in the strong light irradiation environment [3]: relatively stable
- Stability in the high-humidity environment [4]: relatively stable
- X-Ray Powder Diffraction ([4]; day 0): Unchanged
- Content (%) [4, 14]: 99.58%
- Content of Relevant Substance (%) [4, 14]: 0.42%
- X-Ray Powder Diffraction ([4]; day 5): Unchanged
- Content (%) [4, 15]: 99.60%
- Content of Relevant Substance (%) [4, 15]: 0.40%
- X-Ray Powder Diffraction ([4]; day 10): Unchanged
- Content (%) [4, 16]: 99.56%
- Content of Relevant Substance (%) [4, 16]: 0.44%
- Solubility comparison of the four crystal forms (summary) [5]: >solubility of crystal form A of demethyleneberberine hydrochloride
- Solubility ranking among the four crystal forms [5]: >solubility of crystal form A of demethyleneberberine hydrochloride
- Solubility ranking among the four crystal forms [6]: >solubility of crystal form A of demethyleneberberine hydrochloride
- Solubility ranking among the four crystal forms [7]: >solubility of crystal form A of demethyleneberberine hydrochloride

SMILES: COc1ccc2cc3[n+](cc2c1OC)CCc1cc(O)c(O)cc1-3 [crystal form C, demethyleneberberine hydrochloride]
- X-Ray Powder Diffraction ([1]; day 0): Unchanged
- Content (%) [1, 17]: 99.18%
- Content of Relevant Substance (%) [1, 17]: 0.82%
- X-Ray Powder Diffraction ([1]; day 5): Unchanged
- Content (%) [1, 18]: 99.21%
- Content of Relevant Substance (%) [1, 18]: 0.79%
- Content (%) [1, 19]: 99.19%
- Content of Relevant Substance (%) [1, 19]: 0.81%
- X-Ray Powder Diffraction [1, 19]: Unchanged
- Stability in the high-temperature environment [1]: relatively stable
- Stability under stability test conditions (summary) [1]: stable
- AUC ([2]; male SD rats, hydrochloride): 1077 ng·h/mL
- Cmax ([2]; male SD rats, hydrochloride): 1262 ng/mL
- tmax ([2]; male SD rats, hydrochloride): 0.5 h
- X-Ray Powder Diffraction ([3]; day 0): Unchanged
- Content (%) [3, 20]: 99.57%
- Content of Relevant Substance (%) [3, 20]: 0.43%
- X-Ray Powder Diffraction ([3]; day 5): Unchanged
- Content (%) [3, 21]: 99.49%
- Content of Relevant Substance (%) [3, 21]: 0.51%
- Content (%) [3, 22]: 99.55%
- Content of Relevant Substance (%) [3, 22]: 0.45%
- X-Ray Powder Diffraction [3, 22]: Unchanged
- Stability in the strong light irradiation environment [3]: relatively stable
- Stability in the high-humidity environment [4]: relatively stable
- X-Ray Powder Diffraction ([4]; day 0): Unchanged
- Content (%) [4, 23]: 99.77%
- Content of Relevant Substance (%) [4, 23]: 0.23%
- X-Ray Powder Diffraction ([4]; day 5): Unchanged
- Content (%) [4, 24]: 99.72%
- Content of Relevant Substance (%) [4, 24]: 0.28%
- X-Ray Powder Diffraction ([4]; day 10): Unchanged
- Content (%) [4, 25]: 99.57%
- Content of Relevant Substance (%) [4, 25]: 0.43%
- Solubility comparison of the four crystal forms (summary) [5]: highest; also recorded: >solubility of crystal form B of demethyleneberberine hydrochloride
- Solubility ranking among the four crystal forms [5]: >solubility of crystal form B of demethyleneberberine hydrochloride
- Solubility ranking among the four crystal forms [6]: >solubility of crystal form B of demethyleneberberine hydrochloride
- Solubility ranking among the four crystal forms [7]: >solubility of crystal form B of demethyleneberberine hydrochloride
